Molecular target: GroEL in complex with its cofactor GroES (Escherichia coli, UniProt P0A6F5)
Conditions: with GroES (singly capped); no AlFx; labelled compound

Sequence of GroEL in complex with its cofactor GroES (P0A6F5 2-548): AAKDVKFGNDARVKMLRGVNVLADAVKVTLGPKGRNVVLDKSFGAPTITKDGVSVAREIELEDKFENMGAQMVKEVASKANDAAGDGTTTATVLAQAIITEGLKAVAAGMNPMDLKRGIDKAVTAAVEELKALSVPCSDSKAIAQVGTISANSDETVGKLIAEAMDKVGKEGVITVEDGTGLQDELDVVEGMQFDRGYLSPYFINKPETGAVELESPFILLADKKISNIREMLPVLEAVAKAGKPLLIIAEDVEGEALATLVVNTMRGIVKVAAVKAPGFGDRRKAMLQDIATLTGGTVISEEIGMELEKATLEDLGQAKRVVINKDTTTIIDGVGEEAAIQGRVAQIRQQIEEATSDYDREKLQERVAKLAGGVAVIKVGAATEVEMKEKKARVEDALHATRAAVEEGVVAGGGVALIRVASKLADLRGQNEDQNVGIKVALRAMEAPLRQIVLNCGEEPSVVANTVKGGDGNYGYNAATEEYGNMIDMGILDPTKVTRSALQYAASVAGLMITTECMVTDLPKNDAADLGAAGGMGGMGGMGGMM
Sequence of GroEL in complex with its cofactor GroES (P0A6F9 whole entry, further chain): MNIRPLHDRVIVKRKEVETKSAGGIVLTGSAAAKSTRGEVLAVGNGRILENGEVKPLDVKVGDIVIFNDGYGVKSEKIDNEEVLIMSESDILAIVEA

Nc1ncnc2c1ncn2[C@@H]1O[C@H](COP(=O)(O)OP(=O)(O)OP(=O)(O)O)[C@@H](O)[C@H]1O [ATP]
nucleotides per GroEL 14-mer: ~ 7 nucleotides per GroEL 14-mer
